Test results published in patent US7384656B2, “Anti-allergy composition and related method” (Access Business Group International LLC, priority 2004, dated 2008).

Assays:
Assay type in all cases: cell-based
[1] = tested on: LTC4 release, RBL-2H3 cells; test: LTC4 release from IgE-sensitized, DNP-BSA stimulated RBL-2H3 cells (ELISA); settings: 1 μg/ml
Description: (§1) The methodology used to obtain the results of FIG. 9 will now be described. First, RBL-2H3 cells, available from ATCC (American Type Culture Collection) of Manassas, Va., were plated in 24 well plates at 5×10^4/well. Following adherence, the cells were exposed to the ingredients or combination of ingredients noted in FIG. 9, also referred to as samples. The samples were used at the concentrations noted in Table VI. Stock solutions of all samples were prepared in a solution of DMSO, ethanol, and water present in a ratio of 5:3:2 at 100 mg/ml. Each sample was then diluted in media to the final concentration. The cells were then incubated overnight with the samples. The following day a mouse anti-dinitrophenyl (DNP) IgE antibody, available from Sigma of St. Louis, Mo., was added to the cells at a final concentration of 1 ng/ml. The cells were incubated for 1.5 hr at 37° C. to allow binding of the IgE molecule to the cellular IgE receptor via the constant region of the antibody. Following this incubation period, the cells were washed twice. A solution containing DNP conjugated to BSA (DNP-BSA), available from Calbiochem of San Diego, Calif., was added to the cells at 0.5 ng/ml. […] Next, the measured OD450 data from the ELISA was inputted into a calibration graph to determine the amount by which histamine was reduced relative to an untreated control sample. […]

[2] = tested on: PGD2 release, RBL-2H3 cells; test: PGD2 release from IgE-sensitized, DNP-BSA stimulated RBL-2H3 cells (ELISA); settings: 10 μg/ml
Description: as §1

[3] = tested on: histamine release, RBL-2H3 cells; test: Histamine release from IgE-sensitized, DNP-BSA stimulated RBL-2H3 cells (ELISA); settings: for Percent Control of Histamine Release (Table VII): 10 ng/ml, in combinations each part at 10 ng/ml; for Percent Control, Histamine Release (Table VIII): 1 μg/ml
Description: The methodology used to obtain the results of FIG. 9 will now be described. First, RBL-2H3 cells, available from ATCC (American Type Culture Collection) of Manassas, Va., were plated in 24 well plates at 5×10^4/well. Following adherence, the cells were exposed to the ingredients or combination of ingredients noted in FIG. 9, also referred to as samples. The samples were used at the concentrations noted in Table VI. Stock solutions of all samples were prepared in a solution of DMSO, ethanol, and water present in a ratio of 5:3:2 at 100 mg/ml. Each sample was then diluted in media to the final concentration. The cells were then incubated overnight with the samples. The following day a mouse anti-dinitrophenyl (DNP) IgE antibody, available from Sigma of St. Louis, Mo., was added to the cells at a final concentration of 1 ng/ml. The cells were incubated for 1.5 hr at 37° C. to allow binding of the IgE molecule to the cellular IgE receptor via the constant region of the antibody. Following this incubation period, the cells were washed twice. A solution containing DNP conjugated to BSA (DNP-BSA), available from Calbiochem of San Diego, Calif., was added to the cells at 0.5 ng/ml. The cells were incubated an additional 1 hr at 37° C. The supernatants were assayed for the presence of histamine, PGD2 and/or LTC4 using ELISA kits commercially available from Cayman Chemical of Ann Arbor, Mich. according to the manufacturer's specifications. Next, the measured OD450 data from the ELISA was inputted into a calibration graph to determine the amount by which histamine was reduced relative to an untreated control sample. An example of a histamine calibration graph is illustrated in FIG. 10. Suffice it to say that calibration graphs for PGD2 and LTC4 are similar. The calibration graph in FIG. 10 was generated by measuring the OD450 of multiple, known concentrations of purified histamine. As shown in the graph, the X-axis indicates the concentrations of the histamine in nanomolar; and the Y-axis indicates the OD450 derived from each of the concentrations. The line 120 connects the data points, while line 130 is a trend line corresponding to the equation in this particular embodiment of: Y=−0.0025X^2+0.2915X+2.0775 Equation 2 With the histamine calibration graph, the amount of histamine for each sample was determined, and the subsequent data was input into Table VI and FIG. 9 for comparative analysis.

In the case of `O=c1cc(-c2ccc(O)c(O)c2)oc2cc(O)cc(O)c12` [Luteolin], the “Percent Control LTC4 Release (Table VI)” value [1] is reported as 157%, the “Percent Control of PGD2 Release (Table VI)” value [2] is reported as 68% and the “Percent Control of Histamine Release (Table VII)” value (from here on “Percent Control … (Table VII)”) [3] is reported as 88.1%. The “Percent Control … (Table VII)” value ([3]; listed as luteolin) was “about 88%”, the “Percent Control … (Table VII)” value ([3]; listed as luteolin from Perilla leaf) was “about 88%” and the “Percent Control of Histamine Release (Table VI)” value ([3]; 100 ng/ml) was 10%. The “Percent Control, Histamine Release (Table VIII)” value [3] was “about 100%” and the “Percent Control, Histamine Release (Table VIII)” value ([3]; listed as Luteolin from Perilla seed) was 99.9%.
